Measurements as given in patent US20040010001A1, “Methods and compositions for modulating cell proliferation and cell death” (priority 1999, published 2004).
Like-named read-outs stand apart in the source and are kept apart here.

System: Human prostate PC3 tumor cells
Assay: aFGF/bFGF-induced resistance and reversal by suramin, sulforhodamine B assay
Format: cell-based
Protocol: The experimental conditions are described briefly below. […] Cell number was measured using the sulforhodamine B assay which measures the total protein concentration. […] The FGF-induced resistance was dependent on the FGF concentrations, with a higher resistance at higher FGF concentrations.

[1] = Homo sapiens, read-out: IC50, Control (drug treatment only, without FGF treatment), No suramin, drug 96 hours
[2] = Homo sapiens, read-out: IC50, aFGF 0.3 ng/ml + bFGF 1 ng/ml, No suramin, FGF pretreatment 96 hours, drug 96 hours
[3] = Homo sapiens, read-out: IC50, aFGF 1 ng/ml + bFGF 3 ng/ml, No suramin, FGF pretreatment 96 hours, drug 96 hours
[4] = no suramin, relative to control
[5] = read-out: IC50, Control (without FGF treatment), Suramin, 15 μM, drug 96 hours with 15 μM suramin
[6] = read-out: IC50, aFGF 0.3 ng/ml + bFGF 1 ng/ml, With suramin, FGF pretreatment 96 hours, drug 96 hours with 15 micromolar suramin
[7] = read-out: IC50, aFGF 1 ng/ml + bFGF 3 ng/ml, With suramin, FGF pretreatment 96 hours, drug 96 hours with 15 micromolar suramin
[8] = read-out: IC50, Control (drug treatment only, without FGF treatment), No suramin, drug 96 hours
[9] = read-out: IC50, aFGF 0.3 ng/ml + bFGF 1 ng/ml, No suramin, FGF pretreatment 96 hours, drug 96 hours
[10] = read-out: IC50, aFGF 1 ng/ml + bFGF 3 ng/ml, No suramin, FGF pretreatment 96 hours, drug 96 hours
[11] = Homo sapiens, 96 h, read-out: IC50, Control (drug treatment only, without FGF treatment), No suramin
[12] = Homo sapiens, 96 h, read-out: IC50, aFGF 0.3 ng/ml + bFGF 1 ng/ml, No suramin
[13] = Homo sapiens, 96 h, read-out: IC50, aFGF 1 ng/ml + bFGF 3 ng/ml, No suramin
[14] = read-out: IC50, Control (without FGF treatment), Suramin, 15 μM
[15] = read-out: IC50, aFGF 0.3 ng/ml + bFGF 1 ng/ml, With suramin
[16] = read-out: IC50, aFGF 1 ng/ml + bFGF 3 ng/ml, With suramin

| Compound | IC50 [1] [µM] | IC50 [2] [µM] | IC50 [3] [µM] | IC50 [5] [µM] | Resistance, Folds, aFGF 0.3 ng/ml + bFGF 1 ng/ml [4] [Folds] | Resistance, Folds, aFGF 1 ng/ml + bFGF 3 ng/ml [4] [Folds] | IC50 [6] [µM] | IC50 [7] [µM] | IC50 [8] [µM] | IC50 [9] [µM] | IC50 [10] [µM] | Resistance, Folds, aFGF 0.3 ng/ml + bFGF 1 ng/ml [Folds] | Resistance, Folds, aFGF 1 ng/ml + bFGF 3 ng/ml [Folds] | IC50 [11] [µM] | IC50 [12] [µM] | IC50 [13] [µM] | IC50 [14] [µM] | IC50 [15] [µM] | IC50 [16] [µM] |
| --- | --- | --- | --- | --- | --- | --- | --- | --- | --- | --- | --- | --- | --- | --- | --- | --- | --- | --- | --- |
| O=NN(CCCl)C(=O)NCCCl [BCNU] | 33.5 | 52.2 | 75.6 | 34.2 | 1.56 | 2.26 | 36.5 | 33.3 |  |  |  |  |  |  |  |  |  |  |  |
| N.N.O=C([O-])C1(C(=O)[O-])CCC1.[Pt+2] [Carboplatin] |  |  |  | 2.11 | 1.68 | 4.04 | 2.29 | 2.31 | 2.25 | 3.79 | 9.1 |  |  |  |  |  |  |  |  |
| Oc1ncc(N(CCCl)CCCl)c(O)n1 [Uracil Mustard] |  |  |  |  |  |  |  |  |  |  |  | 1.41 | 2.24 | 30 | 42.4 | 67.1 | 38.2 | 37.6 | 34.6 |
| Nc1ncn([C@H]2C[C@H](O)[C@@H](CO)O2)c(=O)n1 [5-Aza 2′-deoxycytidine] | 6.63 | 14 | 26.3 | 6.14 | 2.12 | 3.96 | 6.54 | 6.39 |  |  |  |  |  |  |  |  |  |  |  |
| Dihydrolenperone |  |  |  | 28.1 | 1.81 | 3.37 | 26.1 | 23.9 | 24.6 | 44.5 | 82.9 |  |  |  |  |  |  |  |  |
| CC(O)CCC(=O)c1ccoc1 (centres unmarked) [4-Ipomeanol] |  |  |  | 4510 | 0.92 | 1.25 | 5040 | 3930 | 4110 | 3780 | 5130 |  |  |  |  |  |  |  |  |
| O=P1(N(CCCl)CCCl)NCCCO1 (centres unmarked) [Cyclophosphamide] |  |  |  |  |  |  |  |  |  |  |  | 2.18 | 3.00 | 0.51 | 1.11 | 1.53 | 0.48 | 0.57 | 0.5 |
| Nc1ncn([C@@H]2O[C@H](CO)[C@@H](O)[C@H]2O)c(=O)n1 [5-Azacitidine] | 6.09 | 13.8 | 26.4 | 6.94 | 2.27 | 4.33 | 6.45 | 7.32 |  |  |  |  |  |  |  |  |  |  |  |
| OC[C@H]1O[C@@H](n2cnc3c2NC=NC[C@H]3O)C[C@@H]1O [Pentostatin] |  |  |  |  |  |  |  |  |  |  |  |  |  | 336 |  |  |  |  |  |

Continued, in another order:

| IC50 [1] [µM] | IC50 [2] [µM] | IC50 [3] [µM] | IC50 [5] [µM] | Compound | Resistance, Folds, aFGF 0.3 ng/ml + bFGF 1 ng/ml [4] [Folds] | Resistance, Folds, aFGF 1 ng/ml + bFGF 3 ng/ml [4] [Folds] | IC50 [6] [µM] | IC50 [7] [µM] | IC50 [8] [µM] | IC50 [9] [µM] | IC50 [10] [µM] | Resistance, Folds, aFGF 0.3 ng/ml + bFGF 1 ng/ml [Folds] | Resistance, Folds, aFGF 1 ng/ml + bFGF 3 ng/ml [Folds] | IC50 [11] [µM] | IC50 [12] [µM] | IC50 [13] [µM] | IC50 [14] [µM] | IC50 [15] [µM] | IC50 [16] [µM] |
| --- | --- | --- | --- | --- | --- | --- | --- | --- | --- | --- | --- | --- | --- | --- | --- | --- | --- | --- | --- |
| 0.4 | 1.14 | 1.98 | 0.42 | COc1cc([C@@H]2c3cc4c(cc3[C@@H](O[C@@H]3O[C@@H]5CO[C@@H](c6cccs6)O[C@H]5[C@H](O)[C@H]3O)[C@H]3COC(=O)[C@H]23)OCO4)cc(OC)c1O [Teniposide] | 2.85 | 4.95 | 0.39 | 0.36 |  |  |  |  |  |  |  |  |  |  |  |
| 86.2 |  |  | 89.2 | CS(=O)(=O)OCCCCOS(C)(=O)=O [Busulfan] | 1.14 | 1.48 |  |  |  |  |  |  |  |  |  |  |  |  |  |
| 36.6 | 53.7 | 108 | 37.6 | CN(C)/N=N/c1[nH]cnc1C(N)=O [Dacarbazine] | 1.47 | 2.95 | 32.4 | 39.7 |  |  |  |  |  |  |  |  |  |  |  |
| 0.00229 |  |  | 0.00202 | CC(=O)O[C@@]12CO[C@@H]1C[C@H](O)[C@@]1(C)C(=O)[C@H](O)C3=C(C)[C@@H](OC(=O)[C@H](O)[C@@H](NC(=O)OC(C)(C)C)c4ccccc4)C[C@@](O)([C@@H](OC(=O)c4ccccc4)[C@H]21)C3(C)C [Taxotere] |  |  |  |  |  |  |  |  |  |  |  |  |  |  |  |
| 0.00588 | 0.00903 | 0.0123 | 0.00711 | O=c1[nH]c(=O)n([C@H]2C[C@H](O)[C@@H](CO)O2)cc1F [5-fluorodoeoxyuridine] | 1.54 | 2.09 | 0.0066 | 0.00575 |  |  |  |  |  |  |  |  |  |  |  |
